Results: patent US9671405B2, “Identifying taxane sensitivity in prostate cancer patients” (Cornell University, priority 2012, dated 2017)

What was measured:
[1] = system: C4-2 prostate cancer cells; test: On-chip ex-vivo taxane treatment of GEDI-captured spiked C4-2 cells, tubulin immunofluorescence; format: cell-based, human; settings: 24 h at 37° C. on device, GEDI-captured C4-2 cells
From the text: FIG. 5A-5F illustrates on-chip assessment of effective drug-target engagement in viable GEDI-captured circulating tumor cells, and that tubulin responses to taxane treatment can be assessed in GEDI-captured cells. […] One ml of spiked blood was then passed through each of three GEDI devices. […] Following drug treatment, cells were fixed and processed for immunofluorescence staining using antibodies against tubulin and CD45. DAPI was used as a DNA counterstain to evaluate nuclear integrity. […] Following drug treatment, the PSMA-captured cells were fixed and processed for immunofluorescence staining as in FIG. 5A with the addition of cytokeratin-18 as an alternative epithelial marker. […] FIG. 5C-5E illustrate additional examples of on-chip assessment of effective drug-target engagement from different castration-resistant prostate cancer patients: taxane-induced microtubule bundling and mitotic defects as evidence of drug-target engagement in GEDI-captured CTCs. […] Note the distinct microtubule bundling in the PSMA^+ cells (middle panel, barbed arrow) and no detectable microtubule network in another PSMA^+ cells from the same patient (bottom panel, standard arrow).
For ex-vivo drug treatment experiments, the blood sample from each patient was divided and 1 ml was flown to each of three GEDI devices simultaneously. […] All circulating tumor cells (PSMA^+/CD45−/DAPI^+) were assessed for the presence of microtubule bundles as evidence of effective drug-target engagement. The percent of circulating tumor cells with evidence of microtubule bundling was calculated. In all samples analyzed, bundling was clearly apparent by the distinct shape, width, orientation and increased fluorescence intensity of microtubule bundles as compared with microtubules from untreated cells. […]
Apoptotic events were determined by the presence of bright and fragmented nuclei accompanied by loss of tubulin staining. […]

[2] = system: GEDI-captured circulating tumor cells from castration-resistant prostate cancer patients; test: On-chip ex-vivo taxane treatment of GEDI-captured patient circulating tumor cells, microtubule bundling as drug-target engagement; format: cell-based, human; settings: for microtubule response (bundling) of circulating tumor cells: patient 3, 100 nM DTX ex-vivo on-chip
From the text: One ml of spiked blood was then passed through each of three GEDI devices. […] Following drug treatment, cells were fixed and processed for immunofluorescence staining using antibodies against tubulin and CD45. DAPI was used as a DNA counterstain to evaluate nuclear integrity. […] Following drug treatment, the PSMA-captured cells were fixed and processed for immunofluorescence staining as in FIG. 5A with the addition of cytokeratin-18 as an alternative epithelial marker.
For ex-vivo drug treatment experiments, the blood sample from each patient was divided and 1 ml was flown to each of three GEDI devices simultaneously. […] At the end of treatment, the GEDI-captured cells were fixed with PHEMO buffer and processed for multiplex confocal microscopy following immunostaining with different cell surface and cytoplasmic antibodies as indicated. […] The percent of circulating tumor cells with evidence of microtubule bundling was calculated. […] In addition, DAPI counterstain was used to assess the presence of mitotic or apoptotic nuclei following drug treatment.
The GEDI-captured circulating tumor cells were tested in situ (i.e., while in the GEDI device) to evaluate their chemosensitivity to taxanes, and predict a patient's clinical response to therapy. […] Microtubule bundling is the first event induced by taxane treatment, resulting in downstream mitotic arrest and apoptotic cell death, and is therefore an appropriate marker of efficient taxane drug-target engagement.

ARv5,6,7 = settings: PC3:mCherry-Tub cells, 2 hr pretreatment, 1 μM docetaxel or 10 μM nocodazole, imaged every 10 min for 120 min
Protocol: (§1) FIGS. 8A and 8B show time lapse images obtained with a spinning disk confocal microscope by acquiring an entire Z-stack at 10 min intervals for 2 hr. Maximum intensity projections are shown of representative PC3:mCherry-Tub cells expressing GFP-ARv5,6,7 (FIG. 8A) or GFP-ARv7 (FIG. 8B) at the indicated time points. […] Quantitative analysis of nuclear of GFP-AR was performed on each focal plane (0.5 μm Z-sections through the entire cell depth) using integrated pixel intensity values from the sum projection and the percentage of nuclear AR was calculated using the following formula: % Nuclear AR=100*Nuclear AR/Total AR. Number of individual cells imaged per condition (n) ARv5,6,7: Control 0, 10, 20 and 30 min: n=16; 40-120 min: n=15. TXT pretreated 0-80 min: n=12; 90-120 min: n=10. Noc pretreated 0-50 min: n=11; 60-110 min: n=10; 120 min: n=3. N values for ARv7: Control 0-120 min: n=9. TXT pretreated 0-120 min: n=9. Noc pretreated 0-100 min: n=21, 110-120 min: n=7.

ARv7 = settings: PC3:mCherry-Tub cells, 2 hr pretreatment, 1 μM docetaxel or 10 μM nocodazole, imaged every 10 min for 120 min
Protocol: as §1

[3] = system: nuclear androgen receptor in LuCaP86.2 tumors; test: Androgen receptor immunohistochemistry on explanted LuCaP86.2 tumors; format: in vivo, SCID mice; settings: untreated versus docetaxel treated animals
Protocol: (§2) Androgen receptor immunostaining of explanted LuCaP tumors was conducted as previously described by Zhang et al. (PLoS One 6, e27970 (2011)).

[4] = system: nuclear androgen receptor in LuCaP 23.1 tumors; test: Androgen receptor immunohistochemistry on explanted LuCaP 23.1 tumors; format: in vivo, SCID mice; settings: untreated versus docetaxel treated animals
Protocol: as §2

[5] = patients administered 55-100 mg/m^2 of docetaxel; cited from earlier work

SMILES: CC(=O)O[C@@]12CO[C@@H]1C[C@H](O)[C@@]1(C)C(=O)[C@H](O)C3=C(C)[C@@H](OC(=O)[C@H](O)[C@@H](NC(=O)OC(C)(C)C)c4ccccc4)C[C@@](O)([C@@H](OC(=O)c4ccccc4)[C@H]21)C3(C)C [docetaxel]
- microtubule bundling ([1]; 100 nM): distinct microtubule bundles
- apoptotic events (bright and fragmented nuclei, loss of tubulin staining) ([1]; 1 μM): induction of apoptotic events
- microtubule bundling ([1]; 1 μM): robust microtubule bundling
- microtubule response (bundling) of circulating tumor cells [2]: non-responsive
- microtubule response (bundling) of circulating tumor cells ([2]; listed as DTX): do not exhibit any evidence of a microtubule response
- effect on microtubule cytoskeleton of captured circulating tumor cells ([2]; patient of FIG. 5B (docetaxel progressor), 100 nM ex vivo, 24 hr): no effect
- nuclear accumulation of ARv5,6,7 (ARv5,6,7): significantly impaired
- nuclear accumulation / localization of ARv7 (ARv7): largely unaffected
- nuclear androgen receptor in LuCaP86.2 tumors (immunohistochemistry) [3]: statistically significant reduction
- nuclear androgen receptor in LuCaP 23.1 tumors (immunohistochemistry) [4]: minimal effect
- AUC of serum docetaxel concentration [5]: 1500 to 5000 ng·h/mL
